# Experimental data reported in PubChem BioAssay AID1996.
# Conditions: buffer; pH 7.4; 200.0 µM
row,Compound,solubility kinetic [µg/mL]
1,Cc1c(C(=O)OCC(=O)Nc2ccc(C(=O)N(C)C)cc2)oc2ccccc12,6.6
2,Cc1ccc(COc2ccc(C)nc2[N+](=O)[O-])cc1,1.2
3,O=C(O)c1cccc(S(=O)(=O)Nc2ccc([N+](=O)[O-])cc2O)c1,45.3
4,CCNC(=O)c1ccc(=O)n(Cc2ccc(Cl)cc2Cl)c1,39
5,CCOc1ccccc1CNS(=O)(=O)c1cnc[nH]1,> 42.2
6,COC(=O)C1CN(C(=O)c2cccc(OC(F)F)c2)c2ccccc2O1 (stereo not given),> 54.5
7,Cc1cc(=O)oc(C)c1C(=O)Nc1ccccc1F,35.4
8,O=C(NC1CC1)C1CC(=O)N(c2ccc(F)cc2)C1 (stereo not given),37.6
9,Cl.Fc1ccc(Nc2ncnc3ccccc23)cc1,36.8
10,CS(=O)(=O)Nc1ccc(C(=O)Nc2ccccc2-c2ccccc2)cc1,42.4
11,COc1ccc(-c2c(=O)n(OC)c3ccccc3[n+]2[O-])cc1OC,> 49.2
12,CCS(=O)(=O)N1CCC(c2nc3ccccc3[nH]2)CC1,40
13,COc1ccc(CC(C)NC2CCCCCC2)cc1 (stereo not given),31
14,CC1CCCCN1C(=O)COc1ccc2ccc(=O)oc2c1 (stereo not given),36.4
15,Cc1ccc2cc3c(nc2c1)N(c1ccccc1)CC3,< 0.3
16,Cc1cccn2cc(-c3cccc(NC(=O)c4cccs4)c3)nc12,5.5
17,Cc1ccccc1NC(=S)NNC(=O)c1ccncc1,> 43
18,Cc1cc(/C=C2/C(=O)NC(=O)N(c3ccc(Br)cc3)C2=O)c(C)n1C,5.3
19,Cc1ccc(N2C(=O)Cc3ccccc3C2=O)cc1,> 37.7
20,CCC(CC)NC(=O)Cn1c(C(C)NC(C)=O)nc2ccccc21 (stereo not given),41.3

row,Compound,solubility kinetic [µg/mL]
1,Cc1ccc(-c2nc(CN3CCN(c4cnccn4)CC3)c(C)o2)o1,38.3
2,COC(=O)c1ccc(CNC(=O)COC(=O)c2cccs2)cc1,10.1
3,Cc1cc(C)cc(OCC(=O)Nc2ccc3c(c2)OCCO3)c1,2
4,COc1ccc(NC(=O)CCN2CCOCC2)c(OC)c1,> 44.2
5,CC1(NC(=O)Cc2csc(-c3ccc(Cl)cc3)n2)CCS(=O)(=O)C1 (stereo not given),> 57.7
6,CCCCCCCCCC(=O)N[C@H](CN1CCOCC1)[C@H](O)c1ccccc1.Cl,> 64.1
7,Cc1ccc(C(C)NC(=O)c2ccc3c(c2)OCO3)cc1C (stereo not given),39.4
8,CCC1CCC2(CC1)NC(=O)N(CC(=O)NCc1ccccc1Cl)C2=O (stereo not given),19.9
9,CCCS(=O)(=O)N1CCCC(C(=O)c2ccccc2OC)C1 (stereo not given),> 48.8
10,CCc1ccc(S(=O)(=O)NC2CC(C)(C)NC(C)(C)C2)cc1,35.8
11,O=C(c1ccccc1)N1CCC2(CC1)NCCc1[nH]cnc12,42.7
12,O=C(CN1C(=O)c2ccccc2C1=O)NC1CCCCC1,33.4
13,O=C(Nc1ccc(-c2cnco2)cc1)c1ccccc1,< 0.3
14,CN(CC(=O)O)S(=O)(=O)c1ccc2[nH]c(=O)c(=O)[nH]c2c1,> 47
15,O=C(CN1CCOCC1)NCCc1ccccc1,> 37.2
16,O=C(Nc1sc(-c2ccccc2)cc1C(=O)O)c1ccccc1,45.1
17,CC(C)c1ccc(NC(=O)/C(C#N)=C/c2ccncc2)cc1,4.6
18,O=C(Nc1nccs1)c1ccc(COc2ccccc2)o1,< 0.3
19,CN(CC(=O)Nc1cccc(F)c1)C(=O)/C=C/c1ccc2ccccc2n1,9.9
20,COc1ccccc1C(=O)N(C1=NC(C)CS1)c1ccc(Cl)cc1 (stereo not given),8.1

row,Compound,solubility kinetic [µg/mL]
1,COc1ccc(NC(=O)CN2CC(C)OC(C)C2)cc1Cl (stereo not given),43
2,O=C(CN1C(=O)NC2(CCCCC2)C1=O)N1CCOCC1,> 44.3
3,Cc1nc(SCC(=O)NC2CCCC2)[nH]c(=O)c1C,38.4
4,COc1ccc(NC(=O)CCCc2ccccc2)cc1OC,29.2
5,Cc1cccc(-n2ccc(=O)c(C(=O)O)n2)c1,> 34.5
6,Cc1cc(C(C)(C)C)cc(C)c1S(=O)(=O)N1CC(=O)Nc2ccccc21,5.7
7,COC(=O)CNc1nc(Cl)nc(N2CCC(C)CC2)n1,39.5
8,O=C(c1ccc(-c2ccccc2)cc1)N1CCN(c2ccc(F)cc2)CC1,2.4
9,COC(=O)c1c(C)[nH]c(C(=O)CC#N)c1C,27.2
10,COC(=O)C1=C(O)/C(=C/c2cccc(OC)c2O)N=C1C,35.1
11,COc1ccc(C(=O)NCc2ccc(N3CCN(C)CC3)cc2)cc1,> 50.9
12,CC(C)(C)c1ccc(C(=O)N2CCCC2)s1,> 35.6
13,CC(C)CCN1CCN(Cc2ccon2)CC1CCO (stereo not given),> 42.2
14,COc1ccc(OC)c(NC(=S)N2c3ccccc3CC2C)c1 (stereo not given),7.6
15,Cn1c(N)cc(-c2ccc(F)cc2)c(C#N)c1=O,> 36.5
16,Cc1ccc(C(=O)Nc2ncc(C)s2)s1,7.1
17,COc1ccc(S(=O)(=O)N2CCOCC2)cc1NC(=O)COC(=O)CC1CC2CCC1C2 (stereo not given),11.3
18,Cc1cccc(N2C(=O)Cc3ccccc3C2=O)c1,30.7
19,COC(=O)c1ccc(OC(=O)c2ccncc2)cc1O,> 41
20,O=C(Nc1ccccc1)Nc1csc2ccccc12,0.6
